{
  "source": "patent US20260232752A1",
  "about": "“COMBINATION THERAPY METHODS, COMPOSITIONS AND KITS” (Accure Therapeutics, S.L., priority 2019, published 2026)",
  "key": {"[1]": {"test_system": "experimental autoimmune encephalomyelitis (EAE) mouse model", "assay": "Study EAE-C03: clinical score in EAE mouse model, treatment in chronic phase", "type": "in vivo", "settings": "after 17 days of treatment, treatment started in chronic phase", "experimental": "Three in vivo studies supporting the medical plausibility of BN201 in the treatment of MS and optic neuritis were performed. These studies sought to test the neuroprotective effect of BN201 and were conducted in the neurodegenerative and demyelinating experimental autoimmune encephalomyelitis (EAE) mouse model. Immune response to Myelin Basic Protein (MBP) or Myelin Proteolipid Protein (PLP) induces lesions located predominantly in the spinal cord whereas immunization with Myelin Oligodendrocyte Glycoprotein (MOG) generates lesions located predominantly in the optic nerve and spinal cord. In the literature, the EAE model is commonly used as a model of MS and optic neuritis, since it can cause irreversible visual loss (Kezuka et al, Analysis of the pathogenesis of experimental autoimmune optic neuritis. J Biomed Biotechnol. 2011; 2011:294046; Guo et al, Decreased neural stem/progenitor cell proliferation in mice with chronic/nonremitting experimental autoimmune encephalomyelitis. Neurosignals. 2010; 18(1):1-8).\nStudy EAE-C03: daily i.p. administration of BN201 at two different concentrations was tested versus placebo according to the following experimental design: • EAE affected placebo-treated animals (pathological control group); • EAE-affected animals treated with BN201 at 50 mg/kg dose and • EAE-affected animals treated with BN201 at 100 mg/kg dose. […]"}, "[2]": {"test_system": "human neuroblastoma cell line SH-SY5Y", "assay": "Neuroprotection against H2O2 oxidative stress, MTT assay", "type": "cell-based", "settings": "1 hour preincubation at 0.03-40 μM, then H2O2 15 μM 30 minutes", "experimental": "The objective of the study was to test the possible synergistic effect of the BN201-monomethylfumarate salt in a neuroprotective assay. Thus, BN201-monomethylfumarate salt obtained as indicated in example 5, was tested for its ability to protect the human neuroblastoma cell line SH-SY5Y against death induced by oxidative stress (i.e., hydrogen peroxide (H202)) using an MTT (3-(4,5-dimethylthiazol-2-yl)-2,5-diphenyltetrazolium bromide) cell proliferation assay.\nSH-SY5Y cells were cultivated in 50% Eagle's minimum essential medium (EMEM), 50% Ham's F12 Nutrient Mixture, 10% fetal bovine serum (FBS), 2 mM L-Glu, and 1% penicillin/streptomycin. All of the cell cultures were maintained in a humidified incubator at 5% CO2 and at 37° C. SH-SY5Y cells were preincubated for 1 hour with BN201 alone, monomethyl fumarate alone, or BN201-monomethylfumarate salt at various concentrations (n=5; concentrations: 0.03 μM, 0.1 μM, 0.3 μM, 0.5 μM, 1 μM, 3 μM, 5 μM, 10 μM, 20 μM, 40 μM) and then H2O2 (15 μM) was added to induce stress. Preincubation with sodium pyruvate (10 mM) was used as a positive control. After 30 minutes of H2O2 incubation, the medium was changed and thiazolyl blue tetrazolium bromide (MTT; Sigma Aldrich; stock concentration 10 mg/ml) was added to each well at the final concentration of 0.5 mg/ml. After 2 hours of MTT incubation the cell medium was removed, and cells were resuspended in pure dimethyl sulfoxide (DMSO). Cell viability was determined by reading the absorbance at 570 nm. Each experiment was performed in quintuplicate."}, "[3]": {"test_system": "EAE in C57BL6 mice immunized with MOG35-55", "assay": "Example 3: BN201 and DMF combination, progression of chronic EAE", "type": "in vivo, mouse", "settings": "BN201 25 mg/kg i.p. alone (suboptimal), once a day six days per week from day 15", "experimental": "Effect in the animal model of MS (i.e., EAE in C57BL6 mice immunized with MOG35-55), similar to Example 2.\nStarting on day 15, mice were administered: • dimethyl fumarate (DMF) (group A, 10 mice), • BN201 (group B, 10 mice) • a combination thereof (group C, 10 mice) once a day for six days per week at suboptimal dosages (10 mg/kg for DMF, 25 mg/kg for BN201).\nDMF was administered orally with a rigid cannula in a saline vehicle at a volume of 10 mL/kg, while BN201 was administered via i.p. injection in a saline vehicle at a volume of 5 mL/kg. Control mice received vehicle only via both oral and i.p. injection (group D, 10 mice) or nothing at all (group E, 2 mice).\nThe objective of the study was to evaluate the efficacy and safety of combination therapy with suboptimal doses of BN201 (25 mg/kg) and dimethyl-fumarate (DMF) (10 mg/kg) in the progression of chronic EAE in mice.\nDuring a one week acclimation period starting on day −7, mice were distributed based on body weight stratification into different experimental groups. On day 0, mice were immunized subcutaneously in both hind pads with 150 μg of MOG peptide 35-55 (Spikem, Firenze) emulsified with 50 μg of Mycobacterium tuberculosis (H37Ra strain; Difco, Detroit, MI) in incomplete Freund's adjuvant (IFA). […]"}},
  "data": [
    {"smiles": "CC(C)CN(CC(=O)N(CCCN1CCCC1=O)CC(N)=O)C(=O)CNCCc1ccccc1F", "note": "[BN201, [N-(2-(2′-Fluorophenyl)ethyl)glycyl]-[N-(2-methylpropyl)glycyl]-N-[3-(2′-oxopyrrolidinyl)-propyl]glycinamide]", "values": [
      {"measurement": "clinical score compared to placebo", "setting": "[1]; 50 mg/kg daily i.p.", "result": "significantly decreased the clinical score"},
      {"measurement": "clinical score compared to placebo", "setting": "[1]; 100 mg/kg daily i.p.", "result": "significantly decreased the clinical score"},
      {"measurement": "cell viability as a percentage compared to the control (protection from death induced by oxidative stress)", "setting": "[2]", "result": "partially rescued neurons from death induced by oxidative stress"},
      {"measurement": "course of EAE (clinical score) versus placebo", "setting": "[3]", "result": "suffered EAE similar to those mice treated with placebo"}
    ]}
  ]
}
